In patent publication US12016874B2, “Methods and compositions for treating carbapenem-resistant klebsiella pneumoniae infections” (City University of Hong Kong, priority 2022, dated 2024):
Values after ≈ are worked out from the molar mass of the structure shown. Read-outs that look alike come from different tables or passages of the source.

How the values were obtained:
P. aeruginosa = experiment: Screening of FDA-approved drug library; format: cell-based; details: drug library screen
CR-HvKP 1 [1] = experiment: microbe, parasite or virus in culture; format: cell-based, K. pneumoniae; details: Klebsiella pneumoniae, read-out: MIC after serial passage with incremental drug concentrations
Experimental: The principle of this experiment is that sub-inhibitory concentrations of antibiotics will induce drug-resistant mutations of bacteria.
Materials and methods: CR-HvKP 1 was selected as the representative strain. […] After 24 hours of culture, the culture possibly containing drug-resistant mutant bacteria was diluted 1:100 into fresh LB medium containing 2-fold concentration of drugs. This continuous transfer was repeated for six generations, i.e. the experiment was conducted for six days (the concentration on the second day was twice that on the first day, with daily increment).

CR-HvKP 1 [2] = experiment: String test on sheep blood agar; format: cell-based, K. pneumoniae; details: drug alone
Experimental: 1. A series of tests were performed according to the following process. CR-HvKP 1 was inoculated onto the agar plate containing 5% sheep blood and different drugs and cultured overnight at 37° C. The series test refers to a test in which viscous strings greater than 5 mm in length are formed when a single colony is stretched with a standard bacteriological inoculating loop, which can be considered a virulent strain of a high-viscosity phenotype.

HepG2 cells = experiment: MTT experiment; details: MTT assay
17ZR-75 = experiment: MIC determination according to CLSI guidelines; format: cell-based, K. pneumoniae; details: Klebsiella pneumoniae, drug alone
Experimental: (§1) Bacterial strains grown on MH agar plates were resuspended in sterilized 0.85% sodium chloride solution. […] All tested culture media were finally cultured at 37° C. for 16 hours. E. coli ATCC25922 and K. pneumoniae MGH78578 in Table 1 were used as reference control bacteria.
(§2) See Table 2 and Table 2-1 below for details.

CR-HvKP 2 = experiment: MIC determination according to CLSI guidelines; format: cell-based, K. pneumoniae; details: Klebsiella pneumoniae, drug alone
Experimental: as §1, §2

CR-HvKP 3 = experiment: MIC determination according to CLSI guidelines; format: cell-based, K. pneumoniae; details: Klebsiella pneumoniae, drug alone
Experimental: as §1, §2

14WZ-45 = experiment: MIC determination according to CLSI guidelines; format: cell-based, K. pneumoniae; details: Klebsiella pneumoniae, drug alone
Experimental: as §1, §2

14WZ-51 = experiment: MIC determination according to CLSI guidelines; format: cell-based, K. pneumoniae; details: Klebsiella pneumoniae, drug alone
Experimental: as §1, §2

17ZR-63 = experiment: MIC determination according to CLSI guidelines; format: cell-based, K. pneumoniae; details: Klebsiella pneumoniae, drug alone
Experimental: as §1, §2

15WZ-88 = experiment: MIC determination according to CLSI guidelines; format: cell-based, K. pneumoniae; details: Klebsiella pneumoniae, drug alone
Experimental: as §1, §2

14WZ-52 = experiment: MIC determination according to CLSI guidelines; format: cell-based, K. pneumoniae; details: Klebsiella pneumoniae, drug alone
Experimental: as §1, §2

14WZ-44 = experiment: MIC determination according to CLSI guidelines; format: cell-based, K. pneumoniae; details: Klebsiella pneumoniae; 14WZ-44 (CRKP); drug alone
Experimental: as §1, §2

16ZR-58 = experiment: MIC determination according to CLSI guidelines; format: cell-based, K. pneumoniae; details: Klebsiella pneumoniae, drug alone
Experimental: as §1, §2

16WZ-134 = experiment: MIC determination according to CLSI guidelines; format: cell-based, K. pneumoniae; details: Klebsiella pneumoniae, drug alone
Experimental: as §1, §2

CR-HvKP 1 [3] = experiment: MIC determination according to CLSI guidelines; format: cell-based, K. pneumoniae; details: Klebsiella pneumoniae, drug alone
Experimental: as §1, §2

16ZR-33 = experiment: MIC determination according to CLSI guidelines; format: cell-based, K. pneumoniae; details: Klebsiella pneumoniae, drug alone
Experimental: as §1, §2

15WZ-68 = experiment: MIC determination according to CLSI guidelines; format: cell-based, K. pneumoniae; details: Klebsiella pneumoniae, drug alone
Experimental: as §1, §2

16ZR-10 = experiment: MIC determination according to CLSI guidelines; format: cell-based, K. pneumoniae; details: Klebsiella pneumoniae, drug alone
Experimental: as §1, §2

17ZR-61 = experiment: MIC determination according to CLSI guidelines; format: cell-based, K. pneumoniae; details: Klebsiella pneumoniae, drug alone
Experimental: as §1, §2

16ZR-93 = experiment: MIC determination according to CLSI guidelines; format: cell-based, K. pneumoniae; details: Klebsiella pneumoniae, drug alone
Experimental: as §1, §2

17ZR-31 = experiment: MIC determination according to CLSI guidelines; format: cell-based, K. pneumoniae; details: Klebsiella pneumoniae, drug alone
Experimental: as §1, §2

14WZ-43 = experiment: MIC determination according to CLSI guidelines; format: cell-based, K. pneumoniae; details: Klebsiella pneumoniae, drug alone
Experimental: as §1, §2

CR-HvKP 5 = experiment: MIC determination according to CLSI guidelines; format: cell-based, K. pneumoniae; details: Klebsiella pneumoniae, drug alone
Experimental: as §1, §2

K. pneumoniae = experiment: Screening of FDA-approved drug library; format: cell-based; details: drug library screen
CR-HvKP 1 [4] = experiment: Mucoviscosity assay; format: cell-based, K. pneumoniae; details: drug alone, OD600 of supernatant
Experimental: 2. Mucoviscosity assay: The overnight culture of CR-HvKP 1 was re-inoculated into fresh LB broth to produce a bacterial broth with an OD600 of 0.3. Different drugs were then added and cultured with shaking at 37° C. for 6 hours. The culture was then diluted to an OD600 of 1.0 and centrifuged at 1,000×g for 2 minutes before the supernatant was obtained for OD600 measurement.

rmpA2 = experiment: Virulence gene expression by qRT-PCR; format: cell-based, K. pneumoniae; details: drug alone
[5] = molecular target: T1, K. pneumoniae RNA polymerase (Klebsiella pneumoniae subsp. pneumoniae, UniProt A6TGP0+A6TGP1); experiment: ITC assay; format: binding; details: 25° C.
T1 construct: made in house; host or cells: E. coli BL21(DE3)
T1 sequence (A6TGP1 whole entry): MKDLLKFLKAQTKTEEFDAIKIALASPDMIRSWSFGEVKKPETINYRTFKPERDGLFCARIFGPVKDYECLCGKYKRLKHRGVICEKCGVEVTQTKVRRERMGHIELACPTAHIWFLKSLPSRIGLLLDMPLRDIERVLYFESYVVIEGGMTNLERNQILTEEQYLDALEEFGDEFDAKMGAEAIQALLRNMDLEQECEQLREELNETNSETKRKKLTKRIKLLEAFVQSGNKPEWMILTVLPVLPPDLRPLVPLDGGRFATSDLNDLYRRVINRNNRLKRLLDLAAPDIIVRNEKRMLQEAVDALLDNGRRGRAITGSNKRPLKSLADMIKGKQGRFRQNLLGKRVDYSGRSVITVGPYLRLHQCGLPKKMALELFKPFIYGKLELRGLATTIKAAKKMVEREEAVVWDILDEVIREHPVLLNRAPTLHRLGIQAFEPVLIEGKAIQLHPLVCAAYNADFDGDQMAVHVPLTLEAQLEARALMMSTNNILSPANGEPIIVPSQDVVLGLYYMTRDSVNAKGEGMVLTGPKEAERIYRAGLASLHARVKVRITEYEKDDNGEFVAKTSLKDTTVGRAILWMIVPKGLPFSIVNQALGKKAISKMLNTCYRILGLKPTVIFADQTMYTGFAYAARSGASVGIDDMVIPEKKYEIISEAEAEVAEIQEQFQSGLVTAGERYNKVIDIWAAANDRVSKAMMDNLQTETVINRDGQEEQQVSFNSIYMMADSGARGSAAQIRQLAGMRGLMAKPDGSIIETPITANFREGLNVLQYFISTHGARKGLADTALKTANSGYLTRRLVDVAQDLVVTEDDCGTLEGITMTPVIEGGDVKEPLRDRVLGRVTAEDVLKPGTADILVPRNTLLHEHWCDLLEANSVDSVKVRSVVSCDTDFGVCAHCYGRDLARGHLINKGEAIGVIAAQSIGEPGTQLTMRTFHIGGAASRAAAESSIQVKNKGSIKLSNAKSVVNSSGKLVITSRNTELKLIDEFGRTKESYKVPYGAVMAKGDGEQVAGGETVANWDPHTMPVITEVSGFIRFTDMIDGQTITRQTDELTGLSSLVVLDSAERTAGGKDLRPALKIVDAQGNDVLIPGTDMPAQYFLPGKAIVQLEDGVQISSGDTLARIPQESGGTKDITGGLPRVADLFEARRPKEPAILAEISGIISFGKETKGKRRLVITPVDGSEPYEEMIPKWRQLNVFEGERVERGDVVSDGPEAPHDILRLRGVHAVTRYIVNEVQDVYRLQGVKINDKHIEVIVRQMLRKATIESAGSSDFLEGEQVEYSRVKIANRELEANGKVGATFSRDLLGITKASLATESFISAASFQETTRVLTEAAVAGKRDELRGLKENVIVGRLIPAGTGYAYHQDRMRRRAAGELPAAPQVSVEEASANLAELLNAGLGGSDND
T1 sequence (A6TGP0 whole entry): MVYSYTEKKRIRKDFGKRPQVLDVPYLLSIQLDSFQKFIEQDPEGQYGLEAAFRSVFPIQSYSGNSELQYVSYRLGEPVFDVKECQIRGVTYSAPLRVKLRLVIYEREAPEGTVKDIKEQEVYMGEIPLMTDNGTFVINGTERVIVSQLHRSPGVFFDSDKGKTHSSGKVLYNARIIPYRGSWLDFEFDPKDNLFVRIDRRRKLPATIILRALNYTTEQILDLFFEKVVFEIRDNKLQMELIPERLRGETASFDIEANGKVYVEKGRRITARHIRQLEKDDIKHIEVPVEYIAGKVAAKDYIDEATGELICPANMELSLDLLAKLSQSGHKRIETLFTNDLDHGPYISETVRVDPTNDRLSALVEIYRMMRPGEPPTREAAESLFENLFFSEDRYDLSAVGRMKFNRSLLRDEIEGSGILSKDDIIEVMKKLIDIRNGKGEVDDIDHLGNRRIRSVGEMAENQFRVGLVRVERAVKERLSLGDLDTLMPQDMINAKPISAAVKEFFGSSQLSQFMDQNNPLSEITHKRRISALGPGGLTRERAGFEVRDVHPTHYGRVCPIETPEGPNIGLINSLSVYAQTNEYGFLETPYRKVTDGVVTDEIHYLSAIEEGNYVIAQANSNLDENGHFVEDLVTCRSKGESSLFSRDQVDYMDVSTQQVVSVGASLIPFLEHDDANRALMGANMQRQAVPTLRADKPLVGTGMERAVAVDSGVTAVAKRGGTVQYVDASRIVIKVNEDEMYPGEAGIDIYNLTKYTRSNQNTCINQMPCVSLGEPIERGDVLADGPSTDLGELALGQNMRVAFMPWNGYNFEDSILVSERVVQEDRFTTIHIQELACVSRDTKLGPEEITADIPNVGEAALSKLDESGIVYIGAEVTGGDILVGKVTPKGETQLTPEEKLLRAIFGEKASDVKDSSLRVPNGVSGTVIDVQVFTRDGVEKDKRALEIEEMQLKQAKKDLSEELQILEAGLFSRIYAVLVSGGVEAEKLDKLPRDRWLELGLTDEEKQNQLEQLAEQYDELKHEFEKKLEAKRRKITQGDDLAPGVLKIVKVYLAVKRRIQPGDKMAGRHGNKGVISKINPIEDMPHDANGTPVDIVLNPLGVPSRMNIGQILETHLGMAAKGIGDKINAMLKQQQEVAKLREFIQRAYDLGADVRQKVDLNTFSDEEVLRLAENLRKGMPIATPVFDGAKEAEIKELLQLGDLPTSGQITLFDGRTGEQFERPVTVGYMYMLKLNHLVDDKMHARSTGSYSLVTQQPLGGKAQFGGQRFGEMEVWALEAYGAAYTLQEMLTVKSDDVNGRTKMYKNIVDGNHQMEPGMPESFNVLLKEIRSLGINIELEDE
T1 sequence (A6TEU8 whole entry, further chain): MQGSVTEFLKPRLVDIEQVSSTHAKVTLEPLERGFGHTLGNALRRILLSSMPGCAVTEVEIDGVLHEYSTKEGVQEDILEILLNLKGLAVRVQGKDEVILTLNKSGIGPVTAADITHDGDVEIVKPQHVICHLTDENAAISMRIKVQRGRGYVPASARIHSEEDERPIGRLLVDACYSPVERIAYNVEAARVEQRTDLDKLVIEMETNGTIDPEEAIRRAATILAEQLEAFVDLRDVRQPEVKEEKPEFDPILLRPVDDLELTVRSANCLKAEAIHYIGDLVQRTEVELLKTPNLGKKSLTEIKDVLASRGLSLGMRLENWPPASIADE
Description: We successfully co-expressed the subunits of K. pneumoniae RNAp to prepare the required core enzyme by a dual plasmids expression system, pACYC-Duet and pET-Duet. The method is briefly described as follows:
Recombinant plasmids containing different subunits of RNAP (rpoA, rpoB, rpoC, rpoD, rpoZ) were constructed using the Gibson assembly method. First, all the required fragments were obtained by PCR amplification from the K. pneumoniae MGH78578 genome and two Duet plasmids, respectively. All fragments, Gibson Assembly Master Mix (NEB, #E2611S) and deionized water were then mixed and incubated at 50° C. for 60 minutes. The recombinant plasmids were transformed into E. coli DH5α by heat shock method. After verification via sequencing, the recombinant plasmids were then transformed into E. coli BL21(DE3). Plasmids pACYC Duet rpoA-rpoZ-Amp (encoding […]) and pET Duet rpoB-rpoC-Kana (encoding β and β′ subunits) were transformed together into E. coli BL21 to prepare RNA core polymerase by in vivo assembly. The σ factor σ subunit was obtained by overexpression of E. coli BL21 containing the plasmid pET-Duet-rpoD-Kana alone. The recombinant bacteria were first cultured in LB agar containing 50 μg/mL of kanamycin and 100 μg/mL of ampicillin and then inoculated into LB broth containing the same concentration of antibiotics at 37° C., 250 rpm. After the bacterial turbidity reached an OD600 of 0.6, 0.5 mM IPTG was added and cultured at 16° C., 200 rpm for 16 hours. Cells were harvested by centrifugation (5000 rpm, 20 minutes at 4° C.). The protein was then purified by affinity chromatography. To further obtain bacterial RNAp holoenzyme, RNAp core enzyme was incubated with sigma subunits at a molar ratio of 1:1 at 37° C. for 15 minutes and then used for subsequent ITC assays.
The test was performed at 25° C. using a Malvern MicroCal PEAQ-ITC automatic ultrasensitive isothermal titration calorimeter (MicroCal (Malvern Instruments), Malvern, UK). […] The solution was stirred at 750 rpm. MicroCal PEAQ-ITC analysis software was used to fit the data to a one site binding model.

CR-HvKP 1 [6] = details: for Viability (%): CR-HvKP 1 infected ICR mice; for mortality rate of mice: oral gavage every 12 hours
Experimental: The ICR mice were injected with 3×10^7 CFU of CR-HvKP 1 intraperitoneally to create sepsis infection models.

E. coli ATCC25922 = experiment: MIC determination according to CLSI guidelines; format: cell-based; details: Escherichia coli, drug alone
Experimental: as §1, §2

K. pneumoniae MGH78578 = experiment: MIC determination according to CLSI guidelines; format: cell-based; details: Klebsiella pneumoniae, drug alone
Experimental: as §1, §2

E. coli = experiment: Screening of FDA-approved drug library; format: cell-based; details: drug library screen
CR-HvKP 1 [7] = details: 20 μg/mL zidovudine

Experimental for red blood cells (RBCs): In-vitro method: Hemolysis experiment: The blood from fresh ICR mice was collected by cardiac blood withdrawal, preserved in K2-EDTA tubes (BD Vacultainer® K2 EDTA, Becton-Dickinson) and temporarily stored at 4° C. The whole blood sample was centrifuged (500 g, 10 minutes) to remove plasma, and then washed three times with PBS buffer. After the last washing, 100 μL of the remaining red blood cells (RBCs) were carefully aspirated from the bottom and diluted with 4.9 mL PBS buffer to prepare a 2% blood solution. […] 50 μL of diluted RBCs were mixed with 100 μL of milli-Q H20 (100% hemolysis) or 100 μL of drug-free PBS as positive and negative controls, respectively. It should be noted that rifampicin itself was red, so the absorbance of PBS with different concentrations of the drug was used as background correction in the calculation. The mixture was mixed gently and incubated at 37° C. for 30 minutes. 80 μL of supernatant was obtained by centrifugation at 2000×g for 6 minutes, and the optical density of the supernatant at 541 nm was measured with a microplate reader (SpectraMax 190, Moleclar Devices).

| Compound | MIC (CR-HvKP 1 [1]) [µg/mL] | HepG2 cell lysis (HepG2 cells) | MIC (17ZR-75) [µg/mL] | MIC (CR-HvKP 2) [µg/mL] | MIC (CR-HvKP 3) [µg/mL] | MIC (14WZ-45) [µg/mL] | MIC (14WZ-51) [µg/mL] | MIC (17ZR-63) [µg/mL] | MIC (15WZ-88) [µg/mL] | MIC (14WZ-52) [µg/mL] | MIC (14WZ-44) [µg/mL] | MIC (16ZR-58) [µg/mL] | MIC (16WZ-134) [µg/mL] | MIC (CR-HvKP 1 [3]) [µg/mL] | MIC (16ZR-33) [µg/mL] | MIC (15WZ-68) [µg/mL] | MIC (16ZR-10) [µg/mL] | MIC (17ZR-61) [µg/mL] | MIC (16ZR-93) [µg/mL] | MIC (17ZR-31) [µg/mL] | also measured |
| --- | --- | --- | --- | --- | --- | --- | --- | --- | --- | --- | --- | --- | --- | --- | --- | --- | --- | --- | --- | --- | --- |
| Cc1cn([C@H]2C[C@H](N=[N+]=[N-])[C@@H](CO)O2)c(=O)[nH]c1=O [zidovudine] | 1280 (≈ 4790 µM) | low level | 5 (≈ 18.7 µM) | 2.5 (≈ 9.35 µM) | 2.5 (≈ 9.35 µM) | 2.5 (≈ 9.35 µM) | 2.5 (≈ 9.35 µM) | 1.25 (≈ 4.68 µM) | 2.5 (≈ 9.35 µM) | 1.25 (≈ 4.68 µM) | 2.5 (≈ 9.35 µM) | 2.5 (≈ 9.35 µM) | > 20 | 2.5 (≈ 9.35 µM) | 5 (≈ 18.7 µM) | 2.5 (≈ 9.35 µM) | 0.625 (≈ 2.34 µM) | 1.25 (≈ 4.68 µM) | > 20 | 2.5 (≈ 9.35 µM) | antibacterial effect (P. aeruginosa): exhibited antibacterial effect; string length (CR-HvKP 1 [2]): reduce; MIC (14WZ-43): 2.5 µg/mL (≈ 9.35 µM); MIC (CR-HvKP 5): 5 µg/mL (≈ 18.7 µM); antibacterial effect (K. pneumoniae): exhibited antibacterial effect; hypermucoviscosity (CR-HvKP 1 [4]): reduce; expression of bacterial virulence factor rmpA2 (rmpA2): inhibition; enthalpy (ΔH) [5]: -80.1 ± 124 kcal/mol; reaction stoichiometry (N sites) [5]: 0.239±0.273; Kd ([5]; one site binding model): 7.8 µM; Viability (%) (CR-HvKP 1 [6]; ZDV 10 mg/kg + RIF 0 mg/kg): 0%; mortality rate of mice (CR-HvKP 1 [6]; zidovudine 10 mg/kg only, in 36 hours): 100%; MIC (E. coli ATCC25922): 0.625 µg/mL (≈ 2.34 µM); MIC (K. pneumoniae MGH78578): 5 µg/mL (≈ 18.7 µM); antibacterial effect (E. coli): exhibited antibacterial effect; population size of CR-HvKP 1 in time-kill curve (CR-HvKP 1 [7]): reduced in the first 4 hours and then re-grew to reach the same size as no treatment control at 24 hours |
| CO[C@H]1/C=C/O[C@@]2(C)Oc3c(C)c(O)c4c(O)c(c(/C=N/N5CCN(C)CC5)c(O)c4c3C2=O)NC(=O)/C(C)=C\C=C\[C@H](C)[C@H](O)[C@@H](C)[C@@H](O)[C@@H](C)[C@H](OC(C)=O)[C@@H]1C [rifampicin] | 4100 (≈ 4980 µM) | low level | 64 (≈ 77.8 µM) | 32 (≈ 38.9 µM) | 32 (≈ 38.9 µM) | 16 (≈ 19.4 µM) | 32 (≈ 38.9 µM) | 32 (≈ 38.9 µM) | 16 (≈ 19.4 µM) | 32 (≈ 38.9 µM) | 32 (≈ 38.9 µM) | 32 (≈ 38.9 µM) | 32 (≈ 38.9 µM) | 32 (≈ 38.9 µM) | 16 (≈ 19.4 µM) | 32 (≈ 38.9 µM) | 32 (≈ 38.9 µM) | 32 (≈ 38.9 µM) | > 64 | 32 (≈ 38.9 µM) | MIC (14WZ-43): 32 µg/mL (≈ 38.9 µM); MIC (CR-HvKP 5): 32 µg/mL (≈ 38.9 µM); hemolysis (red blood cells (RBCs)): low level; Viability (%) (CR-HvKP 1 [6]; ZDV 0 mg/kg + RIF 8 mg/kg): 30%; mortality rate of mice (CR-HvKP 1 [6]; rifampicin 8 mg/kg only, in 72 hours): 66%; MIC (E. coli ATCC25922): 8 µg/mL (≈ 9.72 µM); MIC (K. pneumoniae MGH78578): 32 µg/mL (≈ 38.9 µM) |
